How the values were obtained:
[1] = test system: acid secretion stimulated by pentagastrin of the perfused rat stomach; experiment: Testing of the secretion-inhibiting action on the perfused rat stomach; conditions: dose 3 μmol/kg i.d., anesthetized CD rats, perfused stomach in vivo
Description: The abdomen of anesthetized rats (CD rats, female, 200-250 g; 1.5 g/kg i.m. urethane) was opened after tracheotomy by means of a median upper abdominal incision and a PVC catheter was fixed transorally in the esophagus and a further catheter via the pylorus such that the ends of the tubing just projected into the gastric lumen. The catheter leading from the pylorus led outwards through a side opening in the right abdominal wall.
After thorough rinsing (about 50-100 ml), warm physiological NaCl solution at 37° C. was continuously passed through the stomach (0.5 ml/min, pH 6.8-6.9; Braun-Unita I). The pH (pH meter 632, glass electrode EA 147; φ=5 mm, Metrohm), and, by titration with a freshly prepared 0.01 N NaOH solution to pH 7 (Dosimat 665 Metrohm), the secreted HCl were determined in the effluent in each case collected at an interval of 15 minutes.
The gastric secretion was stimulated by continuous perfusion of 1 μg/kg (=1.65 ml/h) of i.v. pentagastrin (left femoral vein) about 30 min after the end of the operation (i.e. alter determination of 2 preliminary fractions). The substances to be tested were administered intraduodenally in 2,5 ml/kg of liquid volume 60 min after the start of the pentagastrin continuous infusion.
The body temperature of the animals was kept at a constant 37.8-38° C. by infrared irradiation and heat pads (automatic, stepless control by means of rectal temperature sensors).

melting point	SMILES	Inhibition of acid secretion (%) [1] [%]
119 °C (dec.)	Cc1cn2ccc3c(c2n1)N[C@H](c1ccccc1)[C@@H](O)[C@@H]3O [Example 11, (7R,8R,9R)-7,8-Dihydroxy-2-methyl-9-phenyl-7,8,9,10-tetrahydroimidazo[1,2-h][1,7]naphthyridine]	100
153 to 154 °C	COCCO[C@@H]1c2ccn3c(Br)c(C)nc3c2N[C@H](c2ccccc2)[C@H]1O [Example 13, (7R,8R,9R)-3-Bromo-8-hydroxy-7-(2-methoxyethoxy)-2-methyl-9-phenyl-7,8,9,10-tetrahydroimidazo[1,2-h][1,7]naphthyridine]	100
123 to 126 °C	COCCO[C@@H]1c2ccn3c(Cl)c(C)nc3c2N[C@H](c2ccccc2)[C@H]1O [Example 14, (7R,8R,9R)-3-Chloro-8-hydroxy-7-(2-methoxyethoxy)-2-methyl-9-phenyl-7,8,9,10-tetrahydroimidazo[1,2-h][1,7]naphthyridine]	100
180 to 183 °C	COCCO[C@@H]1c2ccn3c(CO)c(C)nc3c2N[C@H](c2ccccc2)[C@H]1O [Example 22, (7R,8R,9R)-3-Hydroxymethyl-8-hydroxy-7-(2-methoxyethoxy)-2-methyl-9-phenyl-7,8,9,10-tetrahydroimidazo[1,2-h][1,7]naphthyridine]	100
190 to 192 °C	COCCO[C@@H]1c2ccn3c(-c4ccccc4)c(C)nc3c2N[C@H](c2ccccc2)[C@H]1O [Example 25, (7R,8R,9R)-3,9-Diphenyl-8-hydroxy-7-(2-methoxyethoxy)-2-methyl-7,8,9,10-tetrahydroimidazo[1,2-h][1,7]naphthyridine]	–
168 to 173 °C	COCc1nc2c3c(ccn2c1C)C(=O)[C@H](O)[C@@H](c1ccccc1)N3 [Example 26, (8R,9R)-8-Hydroxy-2-methoxymethyl-3-methyl-9-phenyl-7,8,9,10-tetrahydroimidazo[1,2-h][1,7]naphthyridin-7-one]	–
102 to 104 °C	COCc1nc2c3c(ccn2c1C)[C@@H](O)[C@H](O)[C@@H](c1ccccc1)N3 [Example 27, (7R,8R,9R)-7,8-Dihydroxy-2-methoxymethyl-3-methyl-9-phenyl-7,8,9,10-tetrahydroimidazo[1,2-h][1,7]naphthyridine]	–
63 to 65 °C	COCCO[C@H]1c2ccn3c(C)c(COC)nc3c2N[C@H](c2ccccc2)[C@H]1O [Example 28a, (7S,8R,9R)-8-hydroxy-7-(2-methoxyethoxy)-2-methoxymethyl-3-methyl-9-phenyl-7,8,9,10-tetrahydroimidazo[1,2-h][1,7]naphthyridine]	–

Second part, the molecule before the results:

SMILES	melting point	Inhibition of acid secretion (%) [1] [%]
Cc1nc2c3c(ccn2c1C)C(=O)C(O)C(c1ccsc1)N3 (centres unmarked) [Example 1, 8-Hydroxy-2,3-dimethyl-9-(3-thienyl)-7,8,9,10-tetrahydroimidazo[1,2-h][1,7]naphthyridin-7-one]	222 to 225 °C	–
Cc1nc2c3c(ccn2c1C)C(O)C(O)C(c1ccsc1)N3 (centres unmarked) [Example 2, 7,8-Dihydroxy-2,3-dimethyl-9-(3-thienyl)-7,8,9,10-tetrahydroimidazo[1,2-h][1,7]naphthyridine]	134 to 138 °C	–
Cc1nc2c3c(ccn2c1C)C(=O)CC(c1ccsc1)N3 (centres unmarked) [Example 3, 2,3-Dimethyl-9-(3-thienyl)-7,8,9,10-tetrahydroimidazo[1,2-h][1,7]naphthyridin-7-one]	176 to 177 °C	–
Cc1nc2c3c(ccn2c1C)C(O)CC(c1ccsc1)N3 (centres unmarked) [Example 4, 7-Hydroxy-2,3-dimethyl-9-(3-thienyl)-7,8,9,10-tetrahydroimidazo[1,2-h][1,7]naphthyridine]	192 to 194 °C	–
Cc1nc2c3c(ccn2c1C)C(O)CC(c1ccoc1)N3 (centres unmarked) [Example 7, 9-(3-Furyl)-7-hydroxy-2,3-dimethyl-7,8,9,10-tetrahydroimidazo[1,2-h][1,7]naphthyridine]	221 to 222 °C	–
COCCOCCO[C@@H]1c2ccn3c(C)c(C)nc3c2N[C@H](c2ccccc2)[C@H]1O [Example 8, (7R,8R,9R)-8-Hydroxy-7-[2-(2-methoxyethoxy)ethoxy]-2,3-dimethyl-9-phenyl-7,8,9,10-tetrahydroimidazo[1,2-h][1,7]naphthyridine]	–	100
COCCOCCO[C@H]1c2ccn3c(C)c(C)nc3c2N[C@H](c2ccccc2)[C@H]1O [Example 9, (7S,8R,9R)-8-Hydroxy-7-[2-(2-methoxyethoxy)ethoxy]2,3-dimethyl-9-phenyl-7,8,9,10-tetrahydroimidazo[1,2-h][1,7]naphthyridine]	–	100
COCCO[C@H]1c2ccn3cc(C)nc3c2N[C@H](c2ccccc2)[C@H]1O [Example 12a, (7S,8R,9R)-8-hydroxy-2-methyl-7-(2-methoxyethoxy)-9-phenyl-7,8,9,10-tetrahydroimidazo[1,2-h][1,7]naphthyridine]	–	100
COCCO[C@@H]1c2ccn3cc(C)nc3c2N[C@H](c2ccccc2)[C@H]1O [Example 12b, (7R,8R,9R)-8-hydroxy-2-methyl-7-(2-methoxyethoxy)-9-phenyl-7,8,9,10-tetrahydroimidazo[1,2-h][1,7]-naphthyridine]	–	100
COCCO[C@@H]1c2ccn3c(Cl)c(C)nc3c2O[C@H](c2ccccc2)[C@@H]1O [Example 16, (7R,8R,9R)-3-Chloro-8-hydroxy-7-(2-methoxyethoxy)-2-methyl-9-phenyl-7H-8,9-dihydro-pyrano[2,3-c]imidazo[1,2-a]pyridine]	–	100
COCCO[C@@H]1c2ccn3cc(C)nc3c2O[C@H](c2ccccc2)[C@@H]1O [Example 17, (7R,8R,9R)-8-Hydroxy-7-(2-methoxyethoxy)-2-methyl-9-phenyl-7H-8,9-dihydro-pyrano[2,3-c]imidazo[1,2-a]pyridine]	–	100
Cc1cn2ccc3c(c2n1)O[C@H](c1ccccc1)[C@H](O)[C@@H]3O [Example 18, (7R,8R,9R)-7,8-Dihydroxy-2-methyl-9-phenyl-7H-8,9-dihydropyrano[2,3-c]imidazo[1,2-a]pyridine]	–	100
CO[C@@H]1c2ccn3cc(C)nc3c2N[C@H](c2ccccc2)[C@H]1O [Example 20, (7R,8R,9R)-8-Hydroxy-7-methoxy-2-methyl-9-phenyl-7,8,9,10-tetrahydroimidazo[1,2-h][1,7]naphthyridine]	–	100
CO[C@H]1c2ccn3cc(C)nc3c2N[C@H](c2ccccc2)[C@H]1O [Example 21, (7S,8R,9R)-8-Hydroxy-7-methoxy-2-methyl-9-phenyl-7,8,9,10-tetrahydroimidazo[1,2-h][1,7]naphthyridine]	–	100

From US6869949B2, “Polysubstituted imidazopyridines as gastric secretion inhibitors” (Altana Pharma AG, priority 2000, dated 2005)
